Source: BindingDB's records for doi:10.1016/j.bmcl.2008.08.079 (Abbott Laboratories, 2008)

Key:
[1] = biological target: Serine/threonine-protein kinase pim-2 (Homo sapiens, UniProt Q9P1W9); test: Pim Kinase Assay; conditions: pH 7.5; 22 °C
Protocol: (§1) Assays were conducted in 384-well v-bottom polypropylene plates. Test compound was mixed with Pim and biotinylated peptide substrate, followed by immediate initiation with [gamma-33 P]ATP. Reactions were quenched and transferred to 384-well streptavidin-coated plates. After incubation, radioactivity was counted on a TopCount Scintillation Plate Reader (Packard).

[2] = biological target: Serine/threonine-protein kinase pim-1 (Homo sapiens, UniProt P11309); test: Pim Kinase Assay; conditions: pH 7.5; 22 °C
Protocol: as §1

Chain of Serine/threonine-protein kinase pim-1 (P11309 whole entry): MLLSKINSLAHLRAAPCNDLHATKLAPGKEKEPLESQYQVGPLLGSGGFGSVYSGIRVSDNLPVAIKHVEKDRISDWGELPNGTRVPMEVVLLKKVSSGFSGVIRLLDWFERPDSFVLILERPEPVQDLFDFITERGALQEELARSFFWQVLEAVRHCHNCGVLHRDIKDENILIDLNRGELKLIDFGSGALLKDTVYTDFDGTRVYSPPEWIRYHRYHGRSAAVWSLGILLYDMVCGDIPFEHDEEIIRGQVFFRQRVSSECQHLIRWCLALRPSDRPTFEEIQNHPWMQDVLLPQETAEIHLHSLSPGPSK
Chain of Serine/threonine-protein kinase pim-2 (Q9P1W9 whole entry): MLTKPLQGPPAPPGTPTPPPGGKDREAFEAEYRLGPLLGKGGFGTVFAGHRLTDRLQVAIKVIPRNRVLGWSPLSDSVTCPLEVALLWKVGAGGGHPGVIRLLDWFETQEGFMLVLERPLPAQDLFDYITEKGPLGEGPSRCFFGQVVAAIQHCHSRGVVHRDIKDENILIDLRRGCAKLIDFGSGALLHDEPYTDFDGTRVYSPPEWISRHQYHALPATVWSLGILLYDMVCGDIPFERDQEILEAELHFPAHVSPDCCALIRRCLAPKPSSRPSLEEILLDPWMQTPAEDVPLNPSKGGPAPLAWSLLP

| Structure (SMILES) | Ki [1] [nM] | Ki [2] [nM] |
| --- | --- | --- |
| O=c1onc2n(Cc3ccccc3)c3cc(Cl)c(F)cc3c(O)c1-2 [9-benzyl-7-chloro-6-fluoro-1H,3H,4H,9H-quinolino[2,3-c][1,2]oxazole-3,4-dione] | 558 | 36.5 |
| CCn1c2noc(=O)c-2c(O)c2cc(OC)c(Cl)cc21 [7-chloro-9-ethyl-6-methoxy-1H,3H,4H,9H-quinolino[2,3-c][1,2]oxazole-3,4-dione] | > 1420 | 2700 |
| CCCCn1c2noc(=O)c-2c(O)c2cc(F)c(Cl)cc21 [9-butyl-7-chloro-6-fluoro-1H,3H,4H,9H-quinolino[2,3-c][1,2]oxazole-3,4-dione] | 165 | 15 |
| CCn1c2cc(Cl)c(F)cc2c(=O)c2c(=O)on(C)c21 [7-chloro-9-ethyl-6-fluoro-1-methyl-1H,3H,4H,9H-quinolino[2,3-c][1,2]oxazole-3,4-dione] | > 1420 | 50.1 |

Stronger by Ki [1], values ahead:

| Ki [1] [nM] | Ki [2] [nM] | Structure (SMILES) |
| --- | --- | --- |
| 62.8 | 12.3 | CC(C)n1c2noc(=O)c-2c(O)c2cc(F)c(Cl)cc21 [7-chloro-6-fluoro-9-(propan-2-yl)-1H,3H,4H,9H-quinolino[2,3-c][1,2]oxazole-3,4-dione] |
| 43.5 |  | CCn1c2noc(=O)c-2c(O)c2cc(O)c(Cl)cc21 [7-chloro-9-ethyl-6-hydroxy-1H,3H,4H,9H-quinolino[2,3-c][1,2]oxazole-3,4-dione] |
